Measured values: US11491157B2, “Cycloalkyl substituted pyrazolopyrimidines having activity against RSV” (priority 2018, dated 2022)

Experiments:
[1] = Cytotoxicity in HeLa cells (ATP content, ATPlite kit); conditions: human
[2] = test system: rgRSV224 virus; test: Antiviral activity: rgRSV224 (GFP) replication in HeLa cells; conditions: human respiratory syncytial virus, 72 h, read-out: RSV HELA EC50
Experimental: Black 384-well clear-bottom microtiter plates (Corning, Amsterdam, The Netherlands) were filled via acoustic drop ejection using the echo liquid handler (Labcyte, Sunnyvale, Calif.). 200 nL of compound stock solutions (100% DMSO) were transferred to the assay plates. 9 serial 4-fold dilutions of compound were made, creating per quadrant the same compound concentration. The assay was initiated by adding 10 μL of culture medium to each well (RPMI medium without phenol red, 10% FBS-heat inactivated, 0.04% gentamycin (50 mg/mL). All addition steps are done by using a multidrop dispenser (Thermo Scientific, Erembodegem, Belgium). Next, rgRSV224 virus (MOI=1) diluted in culture medium was added to the plates. rgRSV224 virus is an engineered virus that includes an additional GFP gene (Hallak L K, Spillmann D, Collins P L, Peeples M E. Glycosaminoglycan sulfation requirements for respiratory syncytial virus infection; Journal of virology (2000), 74(22), 10508-13) and was in-licensed from the NIH (Bethesda, Md., USA). Finally, 20 μL of a HeLa cell suspension (3,000 cells/well) were plated. Medium, virus- and mock-infected controls were included in each test. The wells contain 0.05% DMSO per volume. Cells were incubated at 37° C. in a 5% CO2 atmosphere. Three days post-virus exposure, viral replication was quantified by measuring GFP expression in the cells by an in house developed MSM laser microscope (Tibotec, Beerse, Belgium). The EC50 was defined as the 50% inhibitory concentration for GFP expression. In parallel, compounds were incubated for three days in a set of white 384-well microtiter plates (Corning) and the cytotoxicity of compounds in HeLa cells was determined by measuring the ATP content of the cells using the ATPlite kit (Perkin Elmer, Zaventem, Belgium) according to the manufacturer's instructions. The CC50 was defined as the 50% concentration for cytotoxicity.

[3] = in vitro; conditions: human

C[C@@H]1c2ccccc2CCN1C(=O)c1cc(C2CC2)n2nc(-c3ccc([C@H]4C[C@@H]4NP(C)(C)=O)cc3F)cc2n1 [Compound 37, (1R)-2-(7-Cyclopropyl-2-{4-[(1R,2S)-2-[(dimethylphosphoryl)amino]cyclopropyl]-2-fluorophenyl}pyrazolo[1,5-a]pyrimidine-5-carbonyl)-1-methyl-1,2,3,4-tetrahydroisoquinoline]
CC50 at 3 days [1]: 41600 nM
EC50 [2]: 63 nM

CCS(=O)(=O)NC(=O)[C@H]1C[C@@H]1c1ccc(-c2cc3nc(C(=O)N4CCc5ccccc5[C@H]4C)cc(C4CC4)n3n2)c(F)c1 [Compound 25, (1S,2S)-2-(4-{7-Cyclopropyl-5-[(1R)-1-methyl-1,2,3,4-tetrahydroisoquinoline-2-carbonyl]pyrazolo[1,5-a]pyrimidin-2-yl}-3-fluorophenyl)-N-(ethanesulfonyl)-cyclopropane-1-carboxamide]
EC50 [2]: 34 nM
melting point: 171.93 °C
CC50 at 3 days [3]: 51900 nM

C[C@@H]1c2ccsc2CCN1C(=O)c1cc(C2CC2)n2nc(-c3ccc([C@H]4C[C@@H]4C(=O)NS(C)(=O)=O)cc3F)cc2n1 (single isomer, unassigned) [Compound 28, (1S,2S)-2-(4-{7-Cyclopropyl-5-[(4*R)-4-methyl-4,5,6,7-tetrahydro-thieno[3,2-c]pyridine-5-carbonyl]pyrazolo[1,5-a]pyrimidin-2-yl}-3-fluorophenyl)-N-methanesulfonyl-cyclopropane-1-carboxamide]
EC50 [2]: 37 nM
melting point: 286.12 °C
CC50 at 3 days [3]: 53400 nM

CNC(=O)C[C@H]1C[C@@H](c2ccc(-c3cc4nc(C(=O)N5CCc6ccccc6[C@H]5C)cc(C5CC5)n4n3)c(F)c2)C1 [Compound 48, N-methyl-2-[cis-3-(4-{7-cyclopropyl-5-[(1R)-1-methyl-1,2,3,4-tetrahydroisoquinoline-2-carbonyl]pyrazolo[1,5-a]pyrimidin-2-yl}-3-fluorophenyl)cyclobutyl]acetamide]
EC50 [2]: 151 nM
melting point: 143.95 °C
CC50 at 3 days [3]: 23900 nM

C[C@@H]1c2ccccc2CCN1C(=O)c1cc(C2CC2)n2nc(-c3ccc([C@H]4C[C@@H]4C(N)=O)cc3F)cc2n1 [Compound 7, (1S,2S)-2-(4-{7-Cyclopropyl-5-[(1R)-1-methyl-1,2,3,4-tetrahydroisoquinoline-2-carbonyl]pyrazolo[1,5-a]pyrimidin-2-yl}-3-fluorophenyl)cyclopropane-1-carboxamide]
EC50 [2]: 30 nM
melting point: 280.69 °C
CC50 at 3 days [3]: > 100000 nM

C[C@@H]1c2ccccc2CCN1C(=O)c1cc(C2CC2)n2nc(-c3ccc([C@H]4C[C@@H]4C(=O)NS(C)(=O)=O)cc3F)cc2n1 [Compound 24, (1S,2S)-2-(4-{7-Cyclopropyl-5-[(1R)-1-methyl-1,2,3,4-tetrahydroisoquinoline-2-carbonyl]pyrazolo[1,5-a]pyrimidin-2-yl}-3-fluorophenyl)-N-methanesulfonyl-cyclopropane-1-carboxamide]
EC50 [2]: 20 nM
melting point: 166.75 °C
CC50 at 3 days [3]: 44900 nM

CC(=O)N[C@H]1C[C@@H]1c1ccc(-c2cc3nc(C(=O)N4CCc5ccccc5[C@H]4C)cc(C4CC4)n3n2)c(F)c1 [Compound 34, N-[(1S,2R)-2-(4-{7-Cyclopropyl-5-[(1R)-1-methyl-1,2,3,4-tetrahydroisoquinoline-2-carbonyl]pyrazolo[1,5-a]pyrimidin-2-yl}-3-fluorophenyl)cyclopropyl]acetamide]
EC50 [2]: 22 nM
melting point: 232.53 °C
CC50 at 3 days [3]: > 100000 nM

C[C@@H]1c2ccsc2CCN1C(=O)c1cc(C2CC2)n2nc(-c3ccc([C@H]4C[C@@H]4C(N)=O)cc3F)cc2n1 (single isomer, unassigned) [Compound 10, (1S,2S)-2-(4-{7-Cyclopropyl-5-[(4*R)-4-methyl-4,5,6,7-tetrahydro-thieno[3,2-c]pyridine-5-carbonyl]pyrazolo[1,5-a]pyrimidin-2-yl}-3-fluorophenyl)cyclopropane-1-carboxamide]
EC50 [2]: 14 nM
melting point: 302.9 °C
CC50 at 3 days [3]: > 25000 nM

C[C@@H]1c2ccccc2CCN1C(=O)c1cc(C2CC2)n2nc(-c3ccc([C@H]4C[C@@H]4C(=O)NCCC#N)cc3F)cc2n1 [Compound 18, (1S,2S)—N-(2-Cyanoethyl)-2-(4-{7-cyclopropyl-5-[(1R)-1-methyl-1,2,3,4-tetrahydro-isoquinoline-2-carbonyl]pyrazolo[1,5-a]pyrimidin-2-yl}-3-fluorophenyl)cyclopropane-1-carboxamide]
EC50 [2]: 76 nM
melting point: 212.72 °C
CC50 at 3 days [3]: > 100000 nM

C=CCNC(=O)[C@H]1C[C@@H]1c1ccc(-c2cc3nc(C(=O)N4CCc5ccccc5[C@H]4C)cc(C4CC4)n3n2)c(F)c1 [Compound 16, (1S,2S)-2-(4-{7-Cyclopropyl-5-[(1R)-1-methyl-1,2,3,4-tetrahydroisoquinoline-2-carbonyl]pyrazolo[1,5-a]pyrimidin-2-yl}-3-fluorophenyl)-N-(prop-2-en-1-yl)cyclopropane-1-carboxamide]
EC50 [2]: 263 nM
melting point: 240.35 °C
CC50 at 3 days [3]: > 100000 nM

C[C@@H]1c2ccccc2CCN1C(=O)c1cc(C2CC2)n2nc(-c3ccc([C@H]4C[C@@H]4OC(N)=O)cc3F)cc2n1 [Compound 39, (1S,2R)-2-(4-{7-Cyclopropyl-5-[(1R)-1-methyl-1,2,3,4-tetrahydroisoquinoline-2-carbonyl]pyrazolo[1,5-a]pyrimidin-2-yl}-3-fluorophenyl)cyclopropyl carbamate]
EC50 [2]: 82 nM
melting point: 297.87 °C
CC50 at 3 days [3]: 12500 nM

C[C@@H]1c2ccccc2CCN1C(=O)c1cc(C2CC2)n2nc(-c3ccc([C@H]4C[C@@H](COC(N)=O)C4)cc3F)cc2n1 [Compound 44, [cis-3-(4-{7-Cyclopropyl-5-[(1R)-1-methyl-1,2,3,4-tetrahydroisoquinoline-2-carbonyl]pyrazolo[1,5-a]pyrimidin-2-yl}-3-fluorophenyl)cyclobutyl]methyl carbamate]
EC50 [2]: 332 nM
melting point: 300.97 °C
CC50 at 3 days [3]: > 100000 nM

C[C@@H]1c2ccccc2CCN1C(=O)c1cc(C2CC2)n2nc(-c3ccc([C@H]4C[C@@H]4C(=O)NS(=O)(=O)C4CC4)cc3F)cc2n1 [Compound 27, (1S,2S)—N-(Cyclopropanesulfonyl)-2-(4-{7-cyclopropyl-5-[(1R)-1-methyl-1,2,3,4-tetrahydroisoquinoline-2-carbonyl]pyrazolo[1,5-a]pyrimidin-2-yl}-3-fluorophenyl)-cyclopropane-1-carboxamide]
EC50 [2]: 40 nM
melting point: 177.21 °C
CC50 at 3 days [3]: 55800 nM
